This is an account of results in patent US20240050406A1, “COMPOSITION COMPRISING OXIRACETAM FOR PREVENTING OR TREATING MUSCULAR DISEASE” (KSB TUGEN INC., priority 2021, published 2024).

Assay [1] concerns C2C12 myotubes. The assay can be described thus: Myotube diameter in doxorubicin-induced cachexia cell model (Experimental Example 8). The assay is classed as cell-based, mouse. The note with it: doxorubicin 500 nM 48 h with or without oxiracetam 0.01, 0.1, 1, 10 and 30 μM; relative to control. The method, then: A mouse-derived C2C12 cell line was provided from the American Type Culture Collection (ATCC, CRL-1772; Manassas, VA, USA) and cultured at 37° C. in 5% CO2. In the proliferation phase of the cells before differentiation, high concentration glucose Dulbecco's modified Eagle's medium (DMEM) containing 1% penicillin/streptomycin and 10% fetal bovine serum (FBS) medium were used, and in the differentiation induction, the FBS medium was replaced with a 2% horse serum (HS)-containing medium. The C2C12 myoblasts were seeded into a 96 well culture plate and a 6 well culture plate at 2×10^5/well and 5×10^3/well, respectively, and cultured at 37° C. in a CO2 incubator. […]
Two days after anticancer agent and oxiracetam treatment, the anticancer agent-treated group (Doxorubicin), the oxiracetam-treated groups (Oxiracetam 0.01 μM, 0.1 μM, 1 μM, 10 μM and 30 μM), and the control (control) were photographed using an optical microscope at a room temperature, and the diameter (Diameter, %) of a myotube in each group was measured and compared.
(§1) Statistical processing was performed using GraphPad Prism (GraphPad Software Inc., San Diego, CA, USA). The results of each repeated experiment were expressed as mean±standard error of mean, and analyzed using the analysis of variance (Tukey's test), and statistical significance was acknowledged when the P-value was 0.05 or less.

Assay [2] has as its system animal model in which muscular atrophy is induced by dexamethasone. The assay can be described thus: Comparison with dementia drugs in dexamethasone muscular atrophy model (Experimental Example 5). The assay is classed as in vivo, ICR mice.
Source text: For an experimental group in the present invention, oxiracetam having a structure of Formula 1 was purchased from Tokyo Chemical Industry (Japan; Product No. 00398, CAS RN:62613-82-5, purity: 96%) and used. Mirtazapine and olanzapine were purchased from Tokyo Chemical Industry (Japan, Product Nos. M2151, 00393, purity: 96%) and used.
As experimental animals, 7-week-old male ICR mice were purchased and used. Until the day of the experiment, general feed (EEGJ30060: Cargill Agri Purina, Seongnam, Korea) and water were sufficiently supplied to the experimental animals, and the animals were acclimated for 1 week under an environment of a temperature of 23±2° C., a humidity of 55±10%, and a light-dark cycle of 12 hours-12 hours and used in the experiment.
After the acclimation period for the experimental animals, to create a muscular atrophy model, the mice were randomly divided into groups of 7 animals, such as a control (vehicle, n=7), a dexamethasone-treated group (n=7), and a drug-administered group (n=7). The groups except for the control were intraperitoneally injected dexamethasone at a dose of 10 mg/kg from day 7 to day 21 for 14 days. In the case of the drug-administered group, 7 days before the intraperitoneal administration of dexamethasone, the drug was orally administered using a Zonde needle at a dose of 30 or 10 mg/kg/day once a day for 21 days. During the same period, the control was administered no drug, and 100 μL of normal saline was orally administered at a time. To the dexamethasone-treated group (dexamethasone excipient, CMC), instead of the drug, 100 μL of a 0.5% carboxymethylcellulose (CMC) solution was administered. This is to set the effect on the excipient as a blank.
To measure grip strength, a grip strength test was performed. The maximum force presented when the forelimbs of an animal model of each group could no longer hold the rod by pulling the tail horizontally while holding the tail of the animal model and holding the rod of a device with both front paws was considered to be grip strength (N). Grip strength adaptation training was performed at least three times before drug administration. After measurement before drug administration (day 0) and on day 20 after drug administration began, grip strength variation (%) after drug administration began (day 20) with respect to that before drug administration (day 0) was calculated.
The lean body mass of the gastrocnemius muscle (GS) and the lean body mass of the tibialis anterior (TA) for each group were measured every 7 days. Specifically, animal models of each group were anesthetized using 3% isoflurane, fixed to a photographing bed and then photographed. During photographing, the respiratory rates and body temperatures of the animal models were measured with an animal monitoring system (SA Instruments, USA).
The whole body of the animal model was photographed through dual energy X-ray absorptiometry (DEXA) using iNSiGHT VET DXA (Osteosys, KR), and the lean body mass of each of the gastrocnemius muscle (GS) and the tibialis anterior (TA) was measured and calculated from the two-dimensional images of the gastrocnemius muscle (GS) and the tibialis anterior (TA) by a program using the region of interest (ROI).
as §1

In assay [3] the test system is C2C12 myotubes. The assay is described as follows: Myotube diameter in TNF-α muscular atrophy cell model (Experimental Example 7). The note with it: TNF-α 10 ng/ml 48 h with oxiracetam 10 μM or 0 μM; relative to non-treated control. Type of assay: cell-based, mouse. The protocol: A mouse-derived C2C12 cell line was provided from the American Type Culture Collection (ATCC, CRL-1772; Manassas, VA, USA) and cultured at 37° C. in 5% CO2. In the proliferation phase of the cells before differentiation, high concentration glucose Dulbecco's modified Eagle's medium (DMEM) containing 1% penicillin/streptomycin and 10% fetal bovine serum (FBS) medium were used, and in the differentiation induction, the FBS medium was replaced with a 2% horse serum (HS)-containing medium. The C2C12 myoblasts were seeded into a 96 well culture plate and a 6 well culture plate at 2×10^5/well and 5×10^3/well, respectively, and cultured at 37° C. in a CO2 incubator. When the confluency reached approximately 90%, the medium was replaced with 2% horse serum (HS)-containing DMEM to induce differentiation of myoblasts. After 5 days, the C2C12 myotubes that had differentiated were treated with 10 ng/ml TNF-α, which is an inflammatory factor, for 48 hours to cause myotube atrophy, thereby creating a muscular atrophy cell model, TNF-α-treated group (TNF-α). During the TNF-α treatment, 10 μM oxiracetam was treated to create an oxiracetam-treated group (Oxiracetam 10 μM), cells that were not treated during the same period were prepared as a control. Two days after TNF-α and oxiracetam treatment, each of the TNF-α-treated group (TNF-α), the oxiracetam-treated group (Oxiracetam 10 μM) and the control was treated with an ATP detection reagent at room temperature, and then luminescence was measured using a mitochondrial ToxGlo™ assay kit (Promega). In addition, the TNF-α-treated group (TNF-α), the oxiracetam-treated group (Oxiracetam 10 μM) and the control were photographed using an optical microscope and the diameter of a myotube cell in each group were measured and compared. Statistical processing was performed using GraphPad Prism (GraphPad Software Inc., San Diego, CA, USA).

Where [4] appears, read: oxiracetam 30, mirtazapine 10, olanzapine 10 mg/kg/day oral 21 days + dexamethasone, DEXA every 7 days.

As for `COc1cccc2c1C(=O)c1c(O)c3c(c(O)c1C2=O)C[C@@](O)(C(=O)CO)C[C@@H]3O[C@H]1C[C@H](N)[C@H](O)[C@H](C)O1` [Doxorubicin, doxorubicin], the diameter of myotube entry in the assay on C2C12 myotubes [1] is given as “significantly decreased”.

Turning to `CN1CCN2c3ncccc3Cc3ccccc3C2C1` (centres unmarked) [mirtazapine], in assay [2] (oxiracetam 30, mirtazapine 10, olanzapine 10 mg/kg/day oral 21 days + dexamethasone 10 mg/kg i.p. day 7-21), the “change in grip strength” value was “reduced”. Moreover, in assay [2] (setting [4]), the “lean body mass of the gastrocnemius muscle (GS)” value is on record as “not recovered but rather reduced” and the “lean body mass of the tibialis anterior (TA)” value is reported as “not recovered but rather reduced”.

As for TNF-α, the “diameter of a myotube relative to control” value in the assay with C2C12 myotubes [3] is given as “greatly reduced to half the level of the control”.
